Source: patent US20100015174A1, “METHOD TO CONTROL DENGUE VIRUSES IN HUMANS BY PICOLINIC ACID AND DERIVATIVES THEREOF” (priority 2008, published 2010)
In brackets after ≈: the same amount, converted by molar mass. Where two headings read alike, the source gives them in different places.

Assays:
HCV replicon = HCV replicon (qRTCPCR/iCycler) in Ava.5 cell line; format: cell-based, Human Hepatitis C Virus; settings: Hepatitis C virus, Ava5, 24 h, read-out: inhibition of HCV replicon
Method: Here we determine the effects of Picolinic acid and Fusaric Acid on HCV replicon cell lines. The HCV replicons (qRTCPCR/iCycler) were contained in the Ava.5 cell line tested. Normalization by OD and serial dilutions were done in the untreated cell line. The experimental design was as follows: cells were grown in 12 well cell culture plates; the compounds interaction was done for 24 hours; at extraction, cell confluence was 75%; and RNA was extracted using Qiagen Rneasy extraction kit.

VZV Ellen strain = assay: VZV virus yield reduction assay in HEL-299 cells (real-time PCR); format: cell-based, Varicella-Zoster Virus; settings: for Total VZV DNA copies (mean) / Total VZV DNA, % of control: 3 days
CMV AD 169 strain = assay: CMV replication in HEL-299 cells (virus titration); format: cell-based, Cytomegalovirus; settings: Human betaherpesvirus 5, 72 h, 3 days, read-out: EC50 for inhibition of CMV replication
Method: CMV AD 169 strain (ATCC) was used in the experiments. A CMV susceptible cell line, human fibroblast cells HEL-299 (ATCC), was used in the plaque reduction assays.
90% confluent HEL-299 cells were washed and then Infected with CMV AD169 at 0.5 moi for 2 h at 37° C. Following removal of viral inoculums, the Infected cells were washed and exposed to different concentrations of PA (final concentrations: 0, 10, 100, 250, 500, and 1000 ug/mL) or FA (final concentrations: 0, 1, 10, 30, 60, and 100 ug/mL for 3 days. The culture medium was collected for titration of released virions and the cells were harvested for titration of intracellular virions.
90% confluent HEL-299 cells in 24 well plates were Infected with 200 uL of CMV dilutions at 37° C. for 2 h. Following removal of virus inoculums, the infected cells were washed with PBS and overlaid with 0.5% methylcellulose in culture medium. We then treated CMV Infected cells for 3 days at 37° C. with different concentrations of PA and FA. The culture medium was collected for titration of released virus and the cells were harvested for titration of intracellular virus.

[1] = tested on: certain lymphomas, and viral diseases such as Herpes simplex labialis, herpes zoster and papilloma viruses; assay: Systemic picolinic acid capsules in humans; format: in vivo; settings: 00 gelatin capsules at 500 mg per capsule
Description: A systemic preparation of picolinic acid, its derivatives or analogs, containing approximately 1% to 100% active ingredient, may be administered orally, intravenously, intramuscularly or by any acceptable route for the treatment of viral systemic infections such as Dengue. […] Likewise, an injectable form may be prepared.

J2 retrovirus = settings: GG2EE transformed macrophages; cited from earlier work

SMILES | inhibition at 100 µg/mL (HCV replicon) | Total VZV DNA copies (mean) (VZV Ellen strain; FA 1 μg/ml) | Total VZV DNA, % of control (VZV Ellen strain; FA 1 μg/ml) | Total VZV DNA copies (mean) (VZV Ellen strain; FA 10 μg/ml) | Total VZV DNA, % of control (VZV Ellen strain; FA 10 μg/ml) | Total VZV DNA copies (mean) (VZV Ellen strain; FA 30 μg/ml) | Total VZV DNA, % of control (VZV Ellen strain; FA 30 μg/ml) | Total VZV DNA copies (mean) (VZV Ellen strain; FA 60 μg/ml) | Total VZV DNA, % of control (VZV Ellen strain; FA 60 μg/ml) | EC50 (VZV Ellen strain; Human alphaherpesvirus 3, HEL 299, read-out: EC50 against VZV replication, 50% reduction of total VZV DNA copies, HEL-299 cells) | EC90 (VZV Ellen strain; Human alphaherpesvirus 3, HEL 299, read-out: EC90 against VZV replication, total VZV DNA copies, HEL-299 cells) | EC50 (CMV AD 169 strain) | inhibition at 250 µg/mL (HCV replicon) | EC50 (VZV Ellen strain; Human alphaherpesvirus 3, 50% reduction of total VZV DNA copies, HEL-299 cells, read-out: EC50 against VZV replication) | EC90 (VZV Ellen strain; Human alphaherpesvirus 3, total VZV DNA copies, HEL-299 cells, read-out: EC90 against VZV replication) | control of certain lymphomas and viral diseases in humans [1] | J2 retrovirus expression (J2 retrovirus)
CCCCc1ccc(C(=O)O)nc1 [FA, fusaric acid] | ~60% | 753340 copies | 77.7 % of control | 685520 copies | 70.7 % of control | 103405 copies | 10.7 % of control | 66230 copies | 6.8 % of control | ~14 µg/mL (≈ 78.1 µM) | ~41 µg/mL (≈ 229 µM) | ~60 µg/mL (≈ 335 µM) |  |  |  |  | 
O=C(O)c1ccccn1 [PA, picolinic acid] |  |  |  |  |  |  |  |  |  |  |  | ~230 µg/mL (≈ 1870 µM) | ~60% | ~89 µg/mL (≈ 723 µM) | ~505 µg/mL (≈ 4100 µM) | effective | not affected
